Measured values from patent publication US4444767A, “Derivatives of 3-amino-pregn-5-ene” (Roussel Uclaf, priority 1981, dated 1984).
Counter-ions that a name gives are not always drawn.

Legend:
mice = experiment: Acute toxicity; type: in vivo; settings: oral
immunitary systems = experiment: Test of Rosettes to sheep red corpuscles; type: in vivo; settings: Rattus norvegicus, Splenocyte; 3 month old male rats, oral daily from day -1 to day 1; splenocytes after 7 days; read-out: immunostimulating dose (dose which multiplies by 2 the percentage of rosettes observed in the control animals)
Method: The administration to animals of a product capable of stimulating the immunitary systems leads to an increase of their capacity of reaction to the injection of a immunogenic product. 3 month old male rats were sensitized by intraperitoneal administration of sheep erythrocytoes on day 0 and 7 days later, the spleen was removed and splenocytes were placed in contact with sheep erythrocytes. The percentage of leucocytes around which the erythrocytes were in the form of rosettes was determined. The test compounds were orally administered daily from day-1 to day 1 and immunostimulating dose is the dose of product which multiplies by 2 the percentage of rosettes observed in the control animals.

In the case of `C[C@H](O)[C@H]1CC[C@H]2[C@@H]3CC=C4C[C@H](NC(=O)CN)CC[C@]4(C)[C@H]3CC[C@]12C.Cl` [Example 6, 2-amino-N-[(20S) 20-hydroxy-pregn-5-ene-3α-yl]-acetamide hydrochloride], the “LD0 (maximum dose which did not cause any mortality after 8 days)” value (mice) is reported as greater than 400 mg/kg.

With `CC(=O)[C@H]1CC[C@H]2[C@@H]3CC=C4C[C@H](NC(=O)[C@H](C)N)CC[C@]4(C)[C@H]3CC[C@]12C` [Example 3, (2S)-2-amino-N-(20-oxopregn-5-ene 3α-yl)propionamide hydrochloride] the “LD0 (maximum dose which did not cause any mortality after 8 days)” value (mice) was greater than 400 mg/kg and the ED (2-fold rosettes) (immunitary systems) was 2 mg/kg.

`CC(=O)[C@H]1CC[C@H]2[C@@H]3CC=C4C[C@H](NC(=O)CN)CC[C@]4(C)[C@H]3CC[C@]12C` [Example 4, 2-amino N-(20 oxopregn-5-ene 3α-yl) acetamide hydrochloride] was tested, and the “LD0 (maximum dose which did not cause any mortality after 8 days)” value (mice) was 600 mg/kg and the ED (2-fold rosettes) (immunitary systems) was 5 mg/kg.
